Source: ChEMBL document CHEMBL1152470, “Antimicrobial activities of tigecycline and other broad-spectrum antimicrobials tested against serine carbapenemase- and metallo-beta-lactamase-producing Enterobacteriaceae: report from the SENTRY Antimicrobial Surveillance Program” (2008)
≈ marks a conversion by molar mass, not a printed value.

Key:
Assay type in all cases: functional
Enterobacteriaceae [1] = experiment: Antimicrobial activity against carbapenemase producing Enterobacteriaceae by CLSI broth microdilution method
Enterobacteriaceae [2] = experiment: Antimicrobial activity against carbapenemase producing Enterobacteriaceae assessed as susceptible isolates by CLSI breakpoint assay
Enterobacteriaceae [3] = experiment: Antimicrobial activity against carbapenemase producing Enterobacteriaceae assessed as resistant isolates by CLSI breakpoint assay
Klebsiella sp. [4] = experiment: Antimicrobial activity against Klebsiella sp. by CLSI broth microdilution method
Klebsiella sp. [5] = experiment: Antimicrobial activity against Klebsiella sp. assessed as susceptible isolates by CLSI breakpoint assay
Klebsiella sp. [6] = experiment: Antimicrobial activity against Klebsiella sp. assessed as resistant isolates by CLSI breakpoint assay
Enterobacter sp. [7] = experiment: Antimicrobial activity against carbapenemase producing Enterobacter sp. by CLSI broth microdilution method
Enterobacter sp. [8] = experiment: Antimicrobial activity against carbapenemase producing Enterobacter sp. assessed as susceptible isolates by CLSI breakpoint assay
Enterobacter sp. [9] = experiment: Antimicrobial activity against carbapenemase producing Enterobacter sp. assessed as resistant isolates by CLSI breakpoint assay
Enterobacteriaceae [10] = experiment: Antimicrobial activity against Enterobacteriaceae
Proteus mirabilis = experiment: Antimicrobial activity against Proteus mirabilis
Klebsiella pneumoniae [11] = experiment: Antimicrobial activity against VIM1 carbapenemase producing Klebsiella pneumoniae […]
Klebsiella oxytoca [12] = experiment: Antimicrobial activity against KPC2/3 carbapenemase producing Klebsiella oxytoca […]
Klebsiella oxytoca [13] = experiment: Antimicrobial activity against KPC2 carbapenemase producing Klebsiella oxytoca […]
Klebsiella oxytoca [14] = experiment: Antimicrobial activity against KPC3 carbapenemase producing Klebsiella oxytoca […]
Citrobacter freundii [15] = experiment: Antimicrobial activity against KPC2/3 carbapenemase producing Citrobacter freundii […]
Citrobacter freundii [16] = experiment: Antimicrobial activity against KPC2 carbapenemase producing Citrobacter freundii […]
Citrobacter freundii [17] = experiment: Antimicrobial activity against KPC3 carbapenemase producing Citrobacter freundii […]
Enterobacter cloacae [18] = experiment: Antimicrobial activity against KPC2/3 carbapenemase producing Enterobacter cloacae […]
Enterobacter cloacae [19] = experiment: Antimicrobial activity against KPC2 carbapenemase producing Enterobacter cloacae […]
Enterobacter cloacae [20] = experiment: Antimicrobial activity against NMC-A carbapenemase producing Enterobacter cloacae […]
Enterobacter cloacae [21] = experiment: Antimicrobial activity against IMP1 carbapenemase producing Enterobacter cloacae […]
Enterobacter cloacae [22] = experiment: Antimicrobial activity against VIM1 carbapenemase producing Enterobacter cloacae […]
Pluralibacter gergoviae = experiment: Antimicrobial activity against KPC3 carbapenemase producing Enterobacter gergoviae […]
Enterobacter hormaechei = experiment: Antimicrobial activity against KPC2 carbapenemase producing Enterobacter hormaechei […]
Serratia marcescens [23] = experiment: Antimicrobial activity against KPC2/3 carbapenemase producing Serratia marcescens […]
Serratia marcescens [24] = experiment: Antimicrobial activity against SME1 carbapenemase producing Serratia marcescens […]
Escherichia coli = experiment: Antimicrobial activity against KPC2/3 carbapenemase producing Escherichia coli […]
Klebsiella pneumoniae [25] = experiment: Antimicrobial activity against KPC2/3 carbapenemase producing Klebsiella pneumoniae […]
Klebsiella pneumoniae [26] = experiment: Antimicrobial activity against KPC2 carbapenemase producing Klebsiella pneumoniae […]

Compound	MIC50 (Enterobacteriaceae [1]) [µg/mL]	MIC90 (Enterobacteriaceae [1]) [µg/mL]	Activity (Enterobacteriaceae [2]) [%]	Activity (Enterobacteriaceae [3]) [%]	MIC50 (Klebsiella sp. [4]) [µg/mL]	MIC90 (Klebsiella sp. [4]) [µg/mL]	Activity (Klebsiella sp. [5]) [%]	Activity (Klebsiella sp. [6]) [%]	MIC50 (Enterobacter sp. [7]) [µg/mL]	MIC90 (Enterobacter sp. [7]) [µg/mL]	Activity (Enterobacter sp. [8]) [%]	Activity (Enterobacter sp. [9]) [%]	also measured
CN(C)[C@@H]1C(O)=C(C(N)=O)C(=O)[C@@]2(O)C(O)=C3C(=O)c4c(O)cccc4[C@@](C)(O)[C@H]3C[C@@H]12 [TETRACYCLINE]	4 (≈ 9 µM)	> 8	35.6	19.2	4 (≈ 9 µM)	> 8	66.7	13.3	4 (≈ 9 µM)	> 8	70.8	20.8	
C[C@@H](O)[C@H]1C(=O)N2C(C(=O)O)=C(SCCNC=N)C[C@H]12 [IMIPENEM ANHYDROUS]	8 (≈ 26.7 µM)	> 8	37.5		8 (≈ 26.7 µM)	16 (≈ 53.4 µM)	21.7	46.7	4 (≈ 13.4 µM)	> 8	54.2	17.7	
C[C@@H](O)[C@H]1C(=O)N2C(C(=O)O)=C(S[C@@H]3CN[C@H](C(=O)N(C)C)C3)[C@H](C)[C@H]12 [MEROPENEM]	8 (≈ 20.9 µM)	> 8	32.7	50	> 8	> 8	20	61.7	8 (≈ 20.9 µM)	> 8	33.3	41.7	MIC (Enterobacteriaceae [10]): ≥ 2 µg/mL; MIC (Proteus mirabilis): ≥ 16 µg/mL
C[C@@H](O)[C@H]1C(=O)N2C(C(=O)O)=C(S[C@@H]3CN[C@H](C(=O)Nc4cccc(C(=O)O)c4)C3)[C@H](C)[C@H]12	8 (≈ 16.8 µM)	32 (≈ 67.3 µM)	7.7	73.1	> 8	> 32	5	83.3	> 8	> 16	8.3	12.5	
POLYMYXIN B	< 1	4	88.1	11.9	< 1	< 1	93.3	6.7	< 1	< 1	95.2	4.8	
GENTAMICIN	4	> 8	73.3		< 2	> 8	58.3	31.2	8	> 8	42.9	38.1	
CN(C)c1cc(NC(=O)CNC(C)(C)C)c(O)c2c1C[C@H]1C[C@H]3[C@H](N(C)C)C(O)=C(C(N)=O)C(=O)[C@@]3(O)C(O)=C1C2=O [TIGECYCLINE]	0.5 (≈ 0.854 µM)	1 (≈ 1.71 µM)	100	0	1 (≈ 1.71 µM)	2 (≈ 3.41 µM)	100	0	0.25 (≈ 0.427 µM)	0.5 (≈ 0.854 µM)	100	0	MIC (Klebsiella pneumoniae [11]): 0.12 µg/mL (≈ 0.205 µM); MIC (Klebsiella oxytoca [12]): 0.25 µg/mL (≈ 0.427 µM); MIC (Klebsiella oxytoca [13]): 0.12 µg/mL (≈ 0.205 µM); MIC (Klebsiella oxytoca [14]): 0.5 µg/mL (≈ 0.854 µM); MIC (Citrobacter freundii [15]): 0.25 µg/mL (≈ 0.427 µM); MIC (Citrobacter freundii [16]): 1 µg/mL (≈ 1.71 µM); MIC (Citrobacter freundii [17]): 0.12 µg/mL (≈ 0.205 µM); MIC (Enterobacter cloacae [18]): 0.12 µg/mL (≈ 0.205 µM); MIC (Enterobacter cloacae [19]): 0.5 µg/mL (≈ 0.854 µM); MIC (Enterobacter cloacae [20]): 0.12 µg/mL (≈ 0.205 µM); MIC (Enterobacter cloacae [21]): 0.25 µg/mL (≈ 0.427 µM); MIC (Enterobacter cloacae [22]): 0.25 µg/mL (≈ 0.427 µM); MIC (Pluralibacter gergoviae): 0.25 µg/mL (≈ 0.427 µM); MIC (Enterobacter hormaechei): 2 µg/mL (≈ 3.41 µM); MIC (Serratia marcescens [23]): 0.5 µg/mL (≈ 0.854 µM); MIC (Serratia marcescens [24]): 0.5 µg/mL (≈ 0.854 µM); MIC (Escherichia coli): 0.12 µg/mL (≈ 0.205 µM); MIC (Klebsiella pneumoniae [25]): 0.25 µg/mL (≈ 0.427 µM); MIC (Klebsiella pneumoniae [26]): 1 µg/mL (≈ 1.71 µM)
NCC[C@H](O)C(=O)N[C@@H]1C[C@H](N)[C@@H](O[C@H]2O[C@H](CN)[C@@H](O)[C@H](O)[C@H]2O)[C@H](O)[C@H]1O[C@H]1O[C@H](CO)[C@@H](O)[C@H](N)[C@H]1O [AMIKACIN]	8 (≈ 13.7 µM)	32 (≈ 54.6 µM)	73.3	8.3	16 (≈ 27.3 µM)	> 32	53.3	13.3	2 (≈ 3.42 µM)	16 (≈ 27.3 µM)	95.2	4.8	
